# Experimental data as given in article PMC9233935 (Journal of medicinal chemistry, 2022).
# Read-outs that look alike come from different tables or passages of the source.
# Legend:
# Mtb gyrase = Mtb gyrase (Mycobacterium tuberculosis, UniProt P9WG45+P9WG47); experiment: biochemical; assay type: biochemical
# M. tuberculosis H37Rv = experiment: microbe, parasite or virus in culture; assay type: cell-based, Mycobacterium tuberculosis; conditions: for MIC: Mycobacterium tuberculosis, H37RV, read-out: Mtb MIC
# Sequence of Mtb gyrase (P9WG45 whole entry, looked up): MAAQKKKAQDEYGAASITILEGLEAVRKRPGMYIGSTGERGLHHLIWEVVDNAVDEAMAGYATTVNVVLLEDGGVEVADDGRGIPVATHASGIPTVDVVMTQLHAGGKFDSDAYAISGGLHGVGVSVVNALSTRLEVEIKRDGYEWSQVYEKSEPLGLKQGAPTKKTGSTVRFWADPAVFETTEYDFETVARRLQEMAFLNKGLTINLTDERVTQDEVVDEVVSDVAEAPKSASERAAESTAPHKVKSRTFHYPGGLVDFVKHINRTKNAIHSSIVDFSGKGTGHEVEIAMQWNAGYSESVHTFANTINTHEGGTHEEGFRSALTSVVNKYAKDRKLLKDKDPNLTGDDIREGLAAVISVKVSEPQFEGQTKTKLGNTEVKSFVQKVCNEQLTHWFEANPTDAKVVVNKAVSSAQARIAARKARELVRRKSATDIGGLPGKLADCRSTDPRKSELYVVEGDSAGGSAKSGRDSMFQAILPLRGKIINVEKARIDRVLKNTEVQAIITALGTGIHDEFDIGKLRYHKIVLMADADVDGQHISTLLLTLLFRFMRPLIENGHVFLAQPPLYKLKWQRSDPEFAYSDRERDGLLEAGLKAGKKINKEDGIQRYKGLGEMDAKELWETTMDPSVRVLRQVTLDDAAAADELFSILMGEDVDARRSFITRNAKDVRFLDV
# Sequence of Mtb gyrase (P9WG47 whole entry, looked up): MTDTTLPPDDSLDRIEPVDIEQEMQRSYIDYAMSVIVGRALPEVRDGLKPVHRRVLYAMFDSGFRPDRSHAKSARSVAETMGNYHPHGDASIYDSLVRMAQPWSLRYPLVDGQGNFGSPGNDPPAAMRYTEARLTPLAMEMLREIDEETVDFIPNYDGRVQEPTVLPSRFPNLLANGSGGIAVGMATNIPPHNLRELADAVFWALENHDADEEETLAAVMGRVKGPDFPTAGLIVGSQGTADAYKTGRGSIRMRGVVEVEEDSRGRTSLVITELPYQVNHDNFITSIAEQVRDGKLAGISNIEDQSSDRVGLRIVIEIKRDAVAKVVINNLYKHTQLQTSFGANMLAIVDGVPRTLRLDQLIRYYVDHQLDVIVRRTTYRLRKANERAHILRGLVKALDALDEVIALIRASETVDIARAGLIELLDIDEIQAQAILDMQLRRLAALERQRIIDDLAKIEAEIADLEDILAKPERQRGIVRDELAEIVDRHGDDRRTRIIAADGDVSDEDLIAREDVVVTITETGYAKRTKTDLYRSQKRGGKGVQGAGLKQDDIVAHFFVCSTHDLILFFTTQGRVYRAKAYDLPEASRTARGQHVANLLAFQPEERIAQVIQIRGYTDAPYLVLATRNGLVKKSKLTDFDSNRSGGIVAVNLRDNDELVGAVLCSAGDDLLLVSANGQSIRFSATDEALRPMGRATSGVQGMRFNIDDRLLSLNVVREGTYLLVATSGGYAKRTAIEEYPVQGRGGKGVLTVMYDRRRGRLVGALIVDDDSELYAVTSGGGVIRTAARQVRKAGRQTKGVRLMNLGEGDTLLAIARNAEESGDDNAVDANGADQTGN
smiles,measurement,setting,value
"C[C@@H]1CN2c3c(cc4c(N5CC[C@H](CO)C5)noc4c3F)CC3(C(=O)NC(=O)NC3=O)[C@H]2[C@H](C)O1 [Compound 14, (2R,4S,4aS)-11-fluoro-8-((S)-3-(hydroxymethyl)pyrrolidin-1-yl)-2,4-dimethyl-1,2,4,4a-tetrahydro-2’H,6H-spiro[isoxazolo[4,5-g][1,4]oxazino[4,3-a]quinoline-5,5’-pyrimidine]-2’,4’,6’(1’H,3’H)-trione]",Mtb gyrase IC50 fold higher (less potent) than moxifloxacin,Mtb gyrase,≤ 2 fold
"C[C@@H]1CN2c3c(cc4c(N5CC[C@@](C)(O)C5)noc4c3F)CC3(C(=O)NC(=O)NC3=O)[C@H]2[C@H](C)O1 [Compound 15, 11-fluoro-8-(3-hydroxy-3-methylpyrrolidin-1-yl)-2,4-dimethyl-1,2,4,4a-tetrahydro-2’H,6H-spiro[isoxazolo[4,5-g][1,4]oxazino[4,3-a]quinoline-5,5’-pyrimidine]-2’,4’,6’(1’H,3’H)-trione]",MIC,M. tuberculosis H37Rv; 192 h,> 125 µM
"C[C@@H]1CN2c3c(cc4c(N5CC[C@H](C#N)C5)noc4c3F)CC3(C(=O)NC(=O)NC3=O)[C@H]2[C@H](C)O1 [Compound 19, (S)-1-((2R,4S,4aS)-11-fluoro-2,4-dimethyl-2’,4’,6’-trioxo-1,1’,2,3’,4,4a,4’,6’-octahydro-2’H,6H-spiro[isoxazolo[4,5-g][1,4]oxazino[4,3-a]quinoline-5,5’-pyrimidin]-8-yl)pyrrolidine-3-carbonitrile]",Mtb gyrase IC50 fold higher (less potent) than moxifloxacin,Mtb gyrase,≤ 2 fold
"C[C@@H]1CN2c3c(cc4c(OC[C@@H]5CCC(=O)N5C)noc4c3F)CC3(C(=O)NC(=O)NC3=O)[C@H]2[C@H](C)O1 [Compound 25, (2R,4S,4aS)-11-fluoro-2,4-dimethyl-8-(((S)-1-methyl-5-oxopyrrolidin-2-yl)methoxy)-1,2,4,4a-tetrahydro-2’H,6H-spiro[isoxazolo[4,5-g][1,4]oxazino[4,3-a]quinoline-5,5’-pyrimidine]-2’,4’,6’(1’H,3’H)-trione]",fold less active against Mtb than 23,M. tuberculosis H37Rv,4 fold
"C[C@@H]1CN2c3c(cc4c(OC[C@@H]5CCC(=O)O5)noc4c3F)CC3(C(=O)NC(=O)NC3=O)[C@H]2[C@H](C)O1 [Compound 26, (2R,4S,4aS)-11-fluoro-2,4-dimethyl-8-(((S)-5-oxotetrahydrofuran-2-yl)methoxy)-1,2,4,4a-tetrahydro-2’H,6H-spiro[isoxazolo[4,5-g][1,4]oxazino[4,3-a]quinoline-5,5’-pyrimidine]-2’,4’,6’(1’H,3’H)-trione]",fold less active against Mtb than 23,M. tuberculosis H37Rv,2- to 4 fold
"C[C@@H]1CN2c3c(cc4c(OC[C@H]5CCC(=O)O5)noc4c3F)CC3(C(=O)NC(=O)NC3=O)[C@H]2[C@H](C)O1 [Compound 27, (2R,4S,4aS)-11-fluoro-2,4-dimethyl-8-(((R)-5-oxotetrahydrofuran-2-yl)methoxy)-1,2,4,4a-tetrahydro-2’H,6H-spiro[isoxazolo[4,5-g][1,4]oxazino[4,3-a]quinoline-5,5’-pyrimidine]-2’,4’,6’(1’H,3’H)-trione]",fold less active against Mtb than 23,M. tuberculosis H37Rv,2- to 4 fold
"C[C@@H]1CN2c3c(cc4c(OC[C@H]5COC(=O)N5)noc4c3F)CC3(C(=O)NC(=O)NC3=O)[C@H]2[C@H](C)O1 [Compound 29, (2R,4S,4aS)-11-fluoro-2,4-dimethyl-8-(((S)-2-oxooxazolidin-4-yl)methoxy)-1,2,4,4a-tetrahydro-2’H,6H-spiro[isoxazolo[4,5-g][1,4]oxazino[4,3-a]quinoline-5,5’-pyrimidine]-2’,4’,6’(1’H,3’H)-trione]",Mtb MIC,M. tuberculosis H37Rv,2.0 µM
same,MIC,M. tuberculosis H37Rv,2 µM
"C[C@@H]1CN2c3c(cc4c(OC[C@H]5CNC(=O)C5)noc4c3F)CC3(C(=O)NC(=O)NC3=O)[C@H]2[C@H](C)O1 [Compound 31, (2R,4S,4aS)-11-fluoro-2,4-dimethyl-8-(((R)-5-oxopyrrolidin-3-yl)methoxy)-1,2,4,4a-tetrahydro-2’H,6H-spiro[isoxazolo[4,5-g][1,4]oxazino[4,3-a]quinoline-5,5’-pyrimidine]-2’,4’,6’(1’H,3’H)-trione]",Mtb MIC,M. tuberculosis H37Rv,2.0 µM
same,MIC,M. tuberculosis H37Rv,2 µM
"C[C@@H]1CN2c3c(cc4c(OCC[C@@H]5CCC(=O)N5)noc4c3F)CC3(C(=O)NC(=O)NC3=O)[C@H]2[C@H](C)O1 [Compound 32, (2R,4S,4aS)-11-fluoro-2,4-dimethyl-8-(2-((S)-5-oxopyrrolidin-2-yl)ethoxy)-1,2,4,4a-tetrahydro-2’H,6H-spiro[isoxazolo[4,5-g][1,4]oxazino[4,3-a]quinoline-5,5’-pyrimidine]-2’,4’,6’(1’H,3’H)-trione]",fold less active against Mtb than 23,M. tuberculosis H37Rv,~ 4 fold
"C[C@@H]1CN2c3c(cc4c(N5C(=O)OC[C@@H]5C)noc4c3F)CC3(C(=O)NC(=O)NC3=O)[C@H]2[C@H](C)N1O [Compound 35, (2R,4S,4aS)-11-fluoro-3-hydroxy-2,4-dimethyl-8-((S)-4-methyl-2-oxooxazolidin-3-yl)-2,3,4,4a-tetrahydro-1H,2’H,6H-spiro[isoxazolo[4,5-g]pyrazino[1,2-a]quinoline-5,5’-pyrimidine]-2’,4’,6’(1’H,3’H)-trione]",IC50,Mtb gyrase,207 µM
"CC(=O)N1[C@H](C)CN2c3c(cc4c(N5C(=O)OC[C@@H]5C)noc4c3F)CC3(C(=O)NC(=O)NC3=O)[C@H]2[C@@H]1C [Compound 36, (2R,4S,4aS)-3-acetyl-11-fluoro-2,4-dimethyl-8-((S)-4-methyl-2-oxooxazolidin-3-yl)-2,3,4,4a-tetrahydro-1H,2’H,6H-spiro[isoxazolo[4,5-g]pyrazino[1,2-a]quinoline-5,5’-pyrimidine]-2’,4’,6’(1’H,3’H)-trione]",IC50,Mtb gyrase,> 1000 µM
"C[C@@H]1CN2c3c(cc4c(N5C(=O)OC[C@@H]5C)noc4c3F)CC3(C(=O)NC(=O)NC3=O)[C@H]2[C@H](C)N1C#N [Compound 38, (2R,4S,4aS)-11-fluoro-2,4-dimethyl-8-((S)-4-methyl-2-oxooxazolidin-3-yl)-2’,4’,6’-trioxo-1,1’,2,3’,4,4a,4’,6’-octahydro-2’H,3H,6H-spiro[isoxazolo[4,5-g]pyrazino[1,2-a]quinoline-5,5’-pyrimidine]-3-carbonitrile]",fold more active against Mtb than matched pair zoliflodacin,M. tuberculosis H37Rv,~2 fold
"C[C@@H]1CN2c3c(cc4c(-n5cncn5)noc4c3F)CC3(C(=O)NC(=O)NC3=O)[C@H]2[C@H](C)N1C#N [Compound 39, 11-fluoro-2,4-dimethyl-2’,4’,6’-trioxo-8-(1H-1,2,4-triazol-1-yl)-1,1’,2,3’,4,4a,4’,6’-octahydro-2’H,3H,6H-spiro[isoxazolo[4,5-g]pyrazino[1,2-a]quinoline-5,5’-pyrimidine]-3-carbonitrile]",fold more active against Mtb than matched pair 7,M. tuberculosis H37Rv,2 fold
same,MIC,M. tuberculosis H37Rv; 192 h,0.9 µM
"Cc1nnc(-c2noc3c(F)c4c(cc23)CC2(C(=O)NC(=O)NC2=O)[C@H]2[C@H](C)[C@@H](O)[C@H](C)CN42)o1 [Compound 45, (2R,3S,4S,4aR)-11-fluoro-3-hydroxy-2,4-dimethyl-8-(5-methyl-1,3,4-oxadiazol-2-yl)-2,3,4,4a-tetrahydro-1H,2’H,6H-spiro[isoxazolo[4,5-g]pyrido[1,2-a]quinoline-5,5’-pyrimidine]-2’,4’,6’(1’H,3’H)-trione]",fold reduction in Mtb activity relative to matched pair 5,M. tuberculosis H37Rv,10 fold
"C[C@@H]1CN2c3c(cc4c(N5C(=O)OC[C@@H]5C)noc4c3F)CC3(C(=O)NC(=O)NC3=O)[C@H]2[C@H](C)O1 [Zoliflodacin 4, zoliflodacin, reference compound]",MIC,M. tuberculosis H37Rv,7 µM
